These results are taken from publication PMC3251254, “Mini-PEG spacering of VAP-1-targeting ^68Ga-DOTAVAP-P1 peptide improves PET imaging of inflammation” (EJNMMI Research, 2011).

Where two headings read alike, the source gives them in different places. Residues, ends and D or L forms follow the SMILES beside them. *: point of attachment. DOTA = O=C(O)CN1CCN(CC(=O)O)CCN(CC(=O)*)CCN(CC(=O)O)CC1; AEEA = NCCOCCOCC(=O)O

For data set [1] the following is noted: in vivo, iv; for AUC / CL / blood-plasma ratio / metabolic half-life / plasma free fraction (fp): rat. As to the method: Blood samples (0.2 ml of each) were drawn at 5, 10, 15, 30, 45, 60 and 120 min after injection of ^68Ga-DOTA-peptides into heparinised tubes (Microvette 100; Sarstedt, Nümbrecht, Germany). Radioactivity of whole blood was measured with the gamma counter (Wizard, EG&G Wallac). Plasma was separated by centrifugation (2,200 × g for 5 min at 4°C), and plasma radioactivity was measured. The ratio of radioactivity in blood versus plasma was calculated. To determine plasma protein binding, proteins were precipitated with 10% sulphosalicylic acid, and the radioactivity in protein precipitate and supernatant was measured. The plasma supernatant was further analysed by radio-HPLC in order to evaluate the in vivo stability of the ^68Ga-labelled peptides.
In vivo stability data were used in order to generate metabolite-corrected plasma TACs for ^68Ga-DOTAVAP-P1 and ^68Ga-DOTAVAP-PEG-P1, which were further used for the calculation of pharmacokinetic parameters. The area under curve (AUC) of the plasma TAC from 0 to infinity was calculated using a non-compartmental analysis employing the trapezoidal rule. The clearance (CL) of the ^68Ga-labelled peptides after a single intravenous bolus dose was calculated by dividing the injected dose by the AUC. The plot of the natural logarithm of parent tracer concentration against time after bolus injection became linear in the end phase, as the tracer was eliminated according to the laws of first-order reaction kinetics. The elimination rate constant (kel) was calculated as the negative slope of the linear part of the plot. The plasma elimination half-life (t1/2) was calculated as t1/2 = ln(2)/kel. The metabolic half-lives of the ^68Ga-DOTA-peptides were calculated according to the results of radio-HPLC, i.e. the time point when 50% of the total radioactivity is still bound to the intact peptide.

Data set [2] is classed as in vitro ADME. The note with it: plasma. As to the method: The in vitro stability of the ^68Ga-labelled peptides was evaluated in human and rat plasma. Several samples were taken during the 4-h incubation period at 37°C. Proteins from plasma samples were precipitated with 10% sulphosalicylic acid (1:1 v/v), centrifuged at 3,900 × g for 3 min at 4°C, and filtered through 0.45-μm Minispike filter (Waters Corporation). The filtrate was analysed by radio-HPLC.

Usually fraction remaining stands for the share of the starting amount still present when the sample was taken. A low value points to more turnover.

`NCCCC[C@H](NC(=O)CNC(=O)CNC(=O)CNC(=O)CNC(=O)CN1CCN(CC(=O)O)CCN(CC(=O)O)CCN(CC(=O)O)CC1)C(=O)NCC(=O)NCC(=O)NCC(=O)NCC(=O)O` [^68Ga-DOTAVAP-P1, metal not drawn] ({DOTA}-GGGGKGGGG-OH): in data set [1], the “proportion of unchanged peptide in rat plasma at 60 min after injection” value worked out at 19 ± 4%, the “proportion of unchanged peptide in rat plasma at 120 min after injection” value is on record as 4 ± 1%, the AUC is 950 ± 170 min*kBq/ml and the CL is 0.017 ± 0.001 mL/min. Further, in data set [1], the blood-plasma ratio was found to be 1.3 ± 0.1, the metabolic half-life is 0.4 h and the “plasma free fraction (fp)” value was 0.84 ± 0.04. In data set [2] (human), this compound registered a share remaining at 4 h of 88 ± 3%. In data set [2] (rat), the share remaining at 4 h was determined as 82 ± 11%.
Regarding `NCCCC[C@H](NC(=O)CNC(=O)CNC(=O)CNC(=O)CNC(=O)COCCOCCNC(=O)CN1CCN(CC(=O)O)CCN(CC(=O)O)CCN(CC(=O)O)CC1)C(=O)NCC(=O)NCC(=O)NCC(=O)NCC(=O)O` [^68Ga-DOTAVAP-PEG-P1, metal not drawn] ({DOTA-AEEA}-GGGGKGGGG-OH), in data set [1], the “proportion of unchanged peptide in rat plasma at 60 min after injection” value was determined as 76 ± 18%, the “proportion of unchanged peptide in rat plasma at 120 min after injection” value is given as 49 ± 6%, the AUC is listed as 2,400 ± 68 min*kBq/ml and the CL stood at 0.008 ± 0.002 mL/min. In data set [1], the blood-plasma ratio was 1.3 ± 0.1, the metabolic half-life worked out at 2.08 h and the “plasma free fraction (fp)” value came to 0.86 ± 0.02. In data set [2] (human), this compound displayed an amount remaining at 4 h of 89 ± 8%. Also, the share remaining at 4 h in data set [2] (rat) came out at 90 ± 6%.
